These results are taken from patent US20240308973A1, “PHOSPHODIESTERASE 3 (PDE3) INHIBITORS” (Zoetis Services LLC, priority 2023, published 2024).

Series [1] deals with dog PDE3A recombinant enzyme (Canis lupus familiaris, UniProt A0A8I3NYE0). The series can be described thus: cPDE3A assay (fluorescent polarization). As to conditions: canine PDE3A, read-out: cPDE3 Inhibition (IC50). It is filed as biochemical. As to the method: cPDE3A Assay (Fluorescent Polarization)
The canine PDE3A assay kit was purchased from BPS Bioscience (San Diego, CA) which included dog PDE3A recombinant enzyme, FAM-cyclic-3′,5′-AMP (20 μM), PDE3 assay buffer, binding agent, binding agent diluent and microtiter 96-well plates. Compounds were initially dissolved in DMSO. The stock concentration was subsequently diluted in cPDE assay buffer (10× stock) and serially diluted to give a concentration response curve starting at 10 μM (≥7 total concentrations). Following the serial dilution, compound solution (0.1% final DMSO) was transferred to an assay plate (96-well) where the remaining canine PDE3A assay reagents were dispensed according to the BPS Bioscience® protocol (catalog #79735) procedure using a final concentration of 5 pg/μL of enzyme. Each compound was evaluated for the inhibition of the canine PDE3A enzyme activity using the measurement of fluorescent polarization changes. The 50% inhibition concentration (IC50) nM was calculated and reported.

Series [2] can be described thus: Dog plasma half-life after oral dose. The class given is in vivo. As to conditions: Beagle dogs, oral dose 0.1 mg/kg, plasma over 72 hours, read-out: t½ (hrs), Dog Plasma Compound Half-life (converted). As to the method:
Lastly, plasma half-life was assessed for a number of compounds in dogs. Beagle dogs were given an oral dose (0.1 mg/kg) of the respective compound accounting for a dose amount of about 1 mg/dog. Pimopendan was administered at a 0.3 mg/kg dose.

The subject of series [3] is adult human primary ventricular cardiomyocytes. The series can be described thus: contractility amplitude (CA) assay. It is filed as cell-based. As to conditions: for Contractility amplitude: vehicle 100, 1 Hz. On the procedure:
Further, Example #57 (30 μM) was tested in a contractility amplitude (CA) assay using adult human primary ventricular cardiomyocytes dissociated from human donor hearts to determine the potential of the compound to exert its positive inotropic effect by a single (Ca^2+ sensitization or inhibition of PDE3) or dual (Ca^2+ sensitization and inhibition of PDE3) mechanism of action. Cardiomyocytes were incubated at 35° C. under continuous perfusion (2 mL/minute) in a buffer (vehicle) solution (HEPES (10 mM), NaCl (145 mM), KCl (4 mM), MgCl2 1 mM), CaCl2) (1.8 mM) and dextrose (11.1 mM)) plus 0.1% DMSO). Cells were equilibrated for a minimum of 5 minutes and stimulated with 1.0 Hz with a 1.5× stimulation intensity. A 100 μM IBMX (3-isobutyl-1-methylxanthine) non-selective inhibitor of PDE was used. Treatment time and stimulation was 300 seconds at 1.0 Hz. Data was collected using MyoBLAZER™ (v 2.9.2) software. Equilibrated cells (n=12) were stimulated with supra-threshold voltage at 1 Hz pacing frequency (bipolar pulse of 3 ms duration). Starting at 1 V, the amplitude of the stimulating pulse was increased until the cardiomyocytes started generating contraction-relaxation cycles. Contractility amplitude was calculated from the average of the last 20 contractility transients. Contractility amplitude for vehicle, IBMX and IBMX with Example #57 was 100, 136.8 and 267.6, respectively. […] IBMX increased CA by inhibiting PDE, however, there was an even larger increase in CA in the presence of Ex #57. Additionally, the CA assay was used to assess the potential of Ex #57 to exert a shift in the calcium concentration EC50. […] From this second CA study, contractility of the myocytes was dose dependent on calcium concentration. Contractility at 100 μM, 1000 μM and 10,000 μM CaCl2 was 3.11, 56.31 and 228.61, respectively. With the addition of 30 μM Ex #57, respective contractility values increased to 40.17, 182.67 and 284.27.

Sequence of dog PDE3A recombinant enzyme (A0A8I3NYE0 1-1135): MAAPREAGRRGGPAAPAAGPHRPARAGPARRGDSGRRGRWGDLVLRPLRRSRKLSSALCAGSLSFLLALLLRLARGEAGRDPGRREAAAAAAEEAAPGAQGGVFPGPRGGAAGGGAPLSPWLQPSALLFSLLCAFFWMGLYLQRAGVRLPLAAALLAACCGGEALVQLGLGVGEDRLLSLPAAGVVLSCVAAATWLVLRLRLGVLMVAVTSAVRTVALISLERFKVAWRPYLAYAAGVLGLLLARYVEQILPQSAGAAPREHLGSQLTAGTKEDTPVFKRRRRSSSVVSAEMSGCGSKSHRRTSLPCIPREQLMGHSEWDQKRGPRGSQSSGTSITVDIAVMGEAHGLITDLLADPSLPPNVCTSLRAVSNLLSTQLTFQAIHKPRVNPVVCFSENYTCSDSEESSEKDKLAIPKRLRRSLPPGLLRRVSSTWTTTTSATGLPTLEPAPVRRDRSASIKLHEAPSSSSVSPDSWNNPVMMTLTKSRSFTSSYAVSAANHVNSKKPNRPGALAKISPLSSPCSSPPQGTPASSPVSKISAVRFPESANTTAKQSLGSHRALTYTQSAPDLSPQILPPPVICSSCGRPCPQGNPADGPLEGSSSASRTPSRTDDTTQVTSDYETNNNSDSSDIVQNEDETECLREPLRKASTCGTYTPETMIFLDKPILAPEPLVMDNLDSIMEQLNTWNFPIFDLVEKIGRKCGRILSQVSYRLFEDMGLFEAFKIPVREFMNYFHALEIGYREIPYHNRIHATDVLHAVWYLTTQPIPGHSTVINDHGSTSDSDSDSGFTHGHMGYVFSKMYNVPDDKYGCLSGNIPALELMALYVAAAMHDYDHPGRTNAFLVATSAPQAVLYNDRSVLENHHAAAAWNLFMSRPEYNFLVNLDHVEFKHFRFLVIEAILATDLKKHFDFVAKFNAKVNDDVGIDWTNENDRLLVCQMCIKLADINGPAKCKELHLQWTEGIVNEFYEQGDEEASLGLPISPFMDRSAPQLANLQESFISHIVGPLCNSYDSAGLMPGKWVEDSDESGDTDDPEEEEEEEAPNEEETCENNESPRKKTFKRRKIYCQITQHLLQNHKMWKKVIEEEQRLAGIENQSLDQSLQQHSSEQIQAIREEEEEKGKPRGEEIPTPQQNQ

On to `CC1CC(=O)NN=C1c1cc(Cl)c2c(c1)C(C)(C)C(=O)N2` (racemic) [Example #24, 7-chloro-3,3-dimethyl-5-(4-methyl-6-oxo-1,4,5,6-tetrahydropyridazin-3-yl)indolin-2-one], for which, in series [1], the half-inhibitory concentration (IC50) worked out at 5.4 nM. For the same compound, the half-life in series [2] is 50 h.

For the compound `CC1CC(=O)NN=C1c1cc2c(c(-c3cccc(F)c3)c1)NC(=O)CC2` (centres unmarked) [Example #12, 8-(3-fluorophenyl)-6-(4-methyl-6-oxo-1,4,5,6-tetrahydropyridazin-3-yl)-3,4-dihydroquinolin-2 (1H)-one], in series [1], the IC50 came to 90.9 nM. In addition, the half-life in series [2] is 10.4 h.

Turning to `COc1ccc(C2(c3nc4ccc(C5=NNC(=O)CC5C)cc4[nH]3)CC2)cc1` (centres unmarked) [Example #19, 6-(2-(1-(4-methoxyphenyl)cyclopropyl)-1H-benzo[d]imidazol-6-yl)-5-methyl-4,5-dihydropyridazin-3 (2H)-one], the half-life in series [2] is 16 h.

With `CC1CC(=O)NN=C1c1cc(Br)c2c(c1)C(C)(C)C(=O)N2` (centres unmarked) [Example #23, 7-bromo-3,3-dimethyl-5-(4-methyl-6-oxo-1,4,5,6-tetrahydropyridazin-3-yl)indolin-2-one], the IC50 in series [1] was 9.1 nM. Moreover, the half-life in series [2] is 94 h.

In the case of `CC1(C)C(=O)Nc2c(Cl)cc(-c3ccc(=O)[nH]n3)cc21` [Example #25, 7-chloro-3,3-dimethyl-5-(6-oxo-1,6-dihydropyridazin-3-yl)indolin-2-one], the half-inhibitory concentration (IC50) in series [1] came out at 15.7 nM. Also, the half-life in series [2] was 50 h.

In the case of `Cc1cc(C2=NNC(=O)SC2C)cc2sc(=O)[nH]c12` (centres unmarked) [Example #55, 4-methyl-6-(6-methyl-2-oxo-3,6-dihydro-2H-1,3,4-thiadiazin-5-yl)benzo[d]thiazol-2 (3H)-one], in series [1], the IC50 turned out to be 3.8 nM. In addition, the half-life in series [2] was 3.2 h.

`CC1SC(=O)NN=C1c1cc(Cl)c2[nH]c(=O)sc2c1` (centres unmarked) [Example #56, 4-chloro-6-(6-methyl-2-oxo-3,6-dihydro-2H-1,3,4-thiadiazin-5-yl)benzo[d]thiazol-2 (3H)-one]: the IC50 in series [1] amounted to 3.6 nM. For the same compound, in series [2], the half-life was 15 h.

In the case of `CC1SC(=O)NN=C1c1cc(F)c2c(c1)CC(=O)N2` (centres unmarked) [Example #57, 5-(7-fluoro-2-oxoindolin-5-yl)-6-methyl-3,6-dihydro-2H-1,3,4-thiadiazin-2-one], the IC50 in series [1] came out at 14.2 nM. Moreover, the half-life in series [2] is 10 h. Further, the Contractility in series [3] (100 μM CaCl2 with 30 μM Ex #57 (3.11 without)) worked out at 40.17; in series [3] (1000 μM CaCl2 with 30 μM Ex #57 (56.31 without)), 182.67; in series [3] (10,000 μM CaCl2 with 30 μM Ex #57 (228.61 without)), 284.27. This compound also registered a Contractility amplitude in series [3] (100 μM IBMX with 30 μM Example #57) of 267.6. The EC50 in series [3] (Homo sapiens, Cardiomyocyte, without Ex #57 1286 μM, read-out: calcium concentration EC50 with Ex #57) is 821000 nM.

For the compound `CC1SC(=O)NN=C1c1cc(Cl)c2c(c1)C1(CC1)C(=O)N2` (centres unmarked) [Example #58, 5-(7′-chloro-2′-oxospiro[cyclopropane-1,3′-indolin]-5′-yl)-6-methyl-3,6-dihydro-2H-1,3,4-thiadiazin-2-one], the concentration for half-maximal inhibition (IC50) in series [1] stood at 8.4 nM. In series [2], the half-life was 7 h.

With `CC1(C)C(=O)Nc2c(F)cc(C3=NNC(=O)SC3)cc21` [Example #59, 5-(7-fluoro-3,3-dimethyl-2-oxoindolin-5-yl)-3,6-dihydro-2H-1,3,4-thiadiazin-2-one], the concentration for half-maximal inhibition (IC50) in series [1] came to 22.2 nM. For the same compound, in series [2], the half-life was 5.2 h.

As for `CC1(C)C(=O)Nc2c(Cl)cc(C3=NNC(=O)SC3)cc21` [Example #61, 5-(7-chloro-3,3-dimethyl-2-oxoindolin-5-yl)-3,6-dihydro-2H-1,3,4-thiadiazin-2-one], in series [2], the half-life is 8.5 h.

On to `CC1SC(=O)NN=C1c1cc(Cl)c2c(c1)CC(=O)N2` (centres unmarked) [Example #62, 5-(7-chloro-2-oxoindolin-5-yl)-6-methyl-3,6-dihydro-2H-1,3,4-thiadiazin-2-one], for which the half-life in series [2] is 5 h.

Turning to `CC1(C)C(=O)Nc2c(Br)cc(C3=NNC(=O)SC3)cc21` [Example #66, 5-(7-bromo-3,3-dimethyl-2-oxoindolin-5-yl)-3,6-dihydro-2H-1,3,4-thiadiazin-2-one], the half-maximal inhibitory concentration (IC50) in series [1] was found to be 24.4 nM. For the same compound, in series [2], the half-life is 10.2 h.

Consider `CC1SC(=O)NN=C1c1cc(-c2cscn2)c2c(c1)C(C)(C)C(=O)N2` (centres unmarked) [Example #68, 5-(3,3-dimethyl-2-oxo-7-(thiazol-4-yl)indolin-5-yl)-6-methyl-3,6-dihydro-2H-1,3,4-thiadiazin-2-one], for which the IC50 in series [1] stood at 118 nM. The half-life in series [2] is 12 h.

Consider `CC1SC(=O)NN=C1c1cc2c(c(-c3ccc(Cl)cc3)c1)NC(=O)C2` (centres unmarked) [Example #71, 5-(7-(4-chlorophenyl)-2-oxoindolin-5-yl)-6-methyl-3,6-dihydro-2H-1,3,4-thiadiazin-2-one], for which, in series [1], the IC50 is 90.4 nM. The half-life in series [2] was 5.4 h.

Turning to `O=C1CCCc2cc(C3=NNC(=O)SC3)ccc2N1` [Example #72, 5-(2-oxo-2,3,4,5-tetrahydro-1H-benzo[b]azepin-7-yl)-3,6-dihydro-2H-1,3,4-thiadiazin-2-one], the IC50 in series [1] came to 28.2 nM. The half-life in series [2] was 3.9 h.

As to `Cc1cc(C2=NNC(=O)SC2C)cc2c1NC(=O)CCC2` (centres unmarked) [Example #73, 6-methyl-5-(9-methyl-2-oxo-2,3,4,5-tetrahydro-1H-benzo[b]azepin-7-yl)-3,6-dihydro-2H-1,3,4-thiadiazin-2-one], the 50% inhibitory concentration (IC50) in series [1] came out at 4.9 nM. Further, the half-life in series [2] was 7.5 h.

Turning to `CC1SC(=O)NN=C1c1cc(F)c2c(c1)C(C)(C)C(=O)N2` (centres unmarked) [Example #74, 5-(7-fluoro-3,3-dimethyl-2-oxoindolin-5-yl)-6-methyl-3,6-dihydro-2H-1,3,4-thiadiazin-2-one], in series [1], the IC50 came to 13.3 nM. For the same compound, the half-life in series [2] is 55 h.

Regarding `CC1SC(=O)NN=C1c1cc(Cl)c2c(c1)C(C)(C)C(=O)N2` (centres unmarked) [Example #75, 5-(7-chloro-3,3-dimethyl-2-oxoindolin-5-yl)-6-methyl-3,6-dihydro-2H-1,3,4-thiadiazin-2-one], the IC50 in series [1] came out at 9.7 nM. Further, in series [2], the half-life is 50 h.

Regarding `CC1SC(=O)NN=C1c1cc(Br)c2c(c1)C(C)(C)C(=O)N2` (centres unmarked) [Example #76, 5-(7-bromo-3,3-dimethyl-2-oxoindolin-5-yl)-6-methyl-3,6-dihydro-2H-1,3,4-thiadiazin-2-one], the 50% inhibitory concentration (IC50) in series [1] stood at 15.2 nM. The half-life in series [2] is 40 h.

Regarding `CC1(C)C(=O)Nc2c(Cl)cc(-c3cnc4c(c3)CC(=O)N4)cc21` [Example #85, 5-(7-chloro-3,3-dimethyl-2-oxoindolin-5-yl)-1,3-dihydro-2H-pyrrolo[2,3-b]pyridin-2-one], the IC50 in series [1] worked out at 49.7 nM. In addition, in series [2], the half-life was 9 h.

Turning to `CC1(C)C(=O)Nc2c(Cl)cc(-c3cncnc3)cc21` [Example #86, 7-chloro-3,3-dimethyl-5-(pyrimidin-5-yl)indolin-2-one], in series [1], the half-maximal inhibitory concentration (IC50) amounted to 115 nM. For the same compound, the half-life in series [2] was 96 h.

`CC(C)Cn1c(=O)n(C)c(=O)c2[nH]cnc21` [IBMX, 3-isobutyl-1-methylxanthine, reference compound] returned a Contractility amplitude in series [3] (100 μM IBMX alone) of 136.8.
